The target in experiment [1] is PKR R532W (Homo sapiens, UniProt P30613, R532W). As to the kind of experiment: PKR mutant assay, PKR R532W AC50. The format is biochemical. The conditions noted are these: mutant PKR R532W enzyme. The procedure:
(§1) • PKR or PKR mutant enzyme solution was diluted in assay buffer. • 2 μL of test compound was added into wells first, and then 180 μL reaction mix was added. • Reactions mixture with test compound was assembled except for ADP, and plates were stored for 60 minutes at room temperature. • 20 uL ADP was added to start reaction at room temperature and reaction progress was measured as changes in absorbance at 340 nm wavelength at room temperature.
(§2) Test Compound Preparation: • Test compound stock was made at 100x concentration in 100% DMSO (10 mM) • 1 to 3 dilutions were made for 11 points (i.e. 50 μl of first concentration added to 100 μl 100% DMSO to yield 3.33 mM, 50 μl of this added to 100 μl DMSO to yield 1.11 mM, and so forth) • 1 to 100 dilution into assay (2 μl in 200 μl) yielded starting concentration of 100 μM, decreasing 3 fold for 11 points • Assay Buffer: 100 mM KCl, 50 mM Tris 7.5, 5 mM MgCl2, 1 mM DTT, 0.03% BSA • Reaction Mixture: PKR mutant enzyme: 80-400 ng/well; ADP: 0.22-1.65 mM; PEP: 0.1-0.5 mM; NADH:180 uM; LDH: 0.5 units (Sigma#59023); DTT: 1 mM; BSA: 0.03%.
(§3) A compound described herein was diluted with DMSO and tested at 1 μM concentration. The enzyme was diluted in 1× Buffer: (100 mM KCl, 50 mM Tris 7.5, 5 mM MgCl2, 1 mM DTT, 0.03% BSA). 2 μL of compound solution was first added into wells, and then 180 μL of enzyme solution was added. Assays were assembled except for ADP, and plates were stored for 60 minutes at RT. 20 μL ADP was added to start the assay and assay output was evaluated using OD340 at SpectraMax. The assay was run at room temperature. • Final concentration: PKR R532W (100 ng/well), Tris pH 7.5 (50 mM), KCl (100 mM), MgCl2 (5 mM), ADP (0.36 mM), PEP (0.1 mM), NADH (180 μM), LDH (0.5 units, Sigma 59023), DTT (1 mM) and BSA (0.03%).

The target of experiment [2] is PKR R510Q (Homo sapiens, UniProt P30613, R510Q). As to the kind of experiment: PKR mutant assay, PKR R510Q AC50. The format is biochemical. The settings on record: mutant PKR R510Q enzyme. The procedure: as §1
Sequence of PKR R510Q (P30613 whole entry R510Q): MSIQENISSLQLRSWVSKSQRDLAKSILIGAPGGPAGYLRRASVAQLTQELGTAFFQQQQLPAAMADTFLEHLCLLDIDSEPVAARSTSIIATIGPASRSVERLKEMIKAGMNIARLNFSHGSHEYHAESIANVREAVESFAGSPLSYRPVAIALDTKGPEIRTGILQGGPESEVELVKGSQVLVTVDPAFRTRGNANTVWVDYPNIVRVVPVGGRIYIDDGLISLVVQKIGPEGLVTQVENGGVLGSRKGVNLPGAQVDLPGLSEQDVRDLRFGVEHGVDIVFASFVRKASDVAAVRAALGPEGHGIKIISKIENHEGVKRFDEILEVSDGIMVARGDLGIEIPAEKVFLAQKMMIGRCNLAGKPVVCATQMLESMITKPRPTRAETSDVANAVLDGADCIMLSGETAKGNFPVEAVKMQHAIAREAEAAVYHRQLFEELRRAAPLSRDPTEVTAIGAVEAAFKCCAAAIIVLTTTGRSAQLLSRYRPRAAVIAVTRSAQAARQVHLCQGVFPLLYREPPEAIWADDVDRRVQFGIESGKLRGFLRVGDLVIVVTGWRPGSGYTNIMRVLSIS
as §2, with “0.03%. […]” for “0.03%.”

Experiment [3] has as its target T1, PKR WT (Homo sapiens, UniProt P30613). As to the kind of experiment: PKR WT cell based assay AC50. The conditions noted are these: wild type PKR.
Experiment [4] concerns the target T1, PKR WT. As to the kind of experiment: PKR WT enzymatic assay AC50. Type of experiment: biochemical. The settings on record: wild type PKR. Here is the method: as §1, §2
as §3, with “wt” for “R532W”, “(0.48” for “(0.36”, “(0.15” for “(0.1”

This note sets out measurements from US9458132B2, “Therapeutic compounds and compositions and their use as PKM2 modulators” (AGIOS PHARMACEUTICALS, INC., priority 2012, dated 2016).

A value given as a limit tells only on which side of the number the result lay.

A word on the AC50: it is the concentration giving half of the maximal activity seen. A high value points to weaker potency.

Sequence of PKR R532W (P30613 whole entry R532W): as the sequence (P30613 whole entry R510Q) above, with Q510R, R532W counted along it
T1 sequence (P30613 whole entry): as the sequence (P30613 whole entry R510Q) above, with Q510R counted along it

With `Cc1ccccc1C1(O)CN(C(=O)c2ccc(NS(=O)(=O)c3cccc4cccnc34)cc2)C1` [Compound 15, N-(4-(3-hydroxy-3-(o-tolyl)azetidine-1-carbonyl)phenyl)quinoline-8-sulfonamide], the AC50 in experiment [1] was under 100 nM; in experiment [2] it was 101 to 1000 nM; in experiment [3], 101 to 1000 nM; in experiment [4] it was under 100 nM.
As to `O=C(c1ccc(NS(=O)(=O)c2cccc3cccnc23)cc1)N1CC(O)(c2cccc(F)c2)C1` [Compound 4, N-(4-(3-(3-fluorophenyl)-3-hydroxyazetidine-1-carbonyl)phenyl)quinoline-8-sulfonamide], the AC50 in experiment [1] was 101 to 1000 nM; in experiment [2], 1010 to 10000 nM; in experiment [3], under 100 nM; in experiment [4] it was 101 to 1000 nM.
As to `O=C(c1ccc(NS(=O)(=O)c2cccc3c2OCCO3)cc1)N1CC(O)(Cc2ccccc2)C1` [Compound 53, N-(4-(3-benzyl-3-hydroxyazetidine-1-carbonyl)phenyl)-2,3-dihydrobenzo[b][1,4]dioxine-5-sulfonamide], the AC50 in experiment [1], in experiment [2], in experiment [3] and in experiment [4] was under 100 nM in each case.
`O=C(c1ccc(NS(=O)(=O)c2cccc3cccnc23)cc1)N1CC(O)(c2cccc(C(F)(F)F)c2)C1` [Compound 9, N-(4-(3-hydroxy-3-(3-(trifluoromethyl)phenyl)azetidine-1-carbonyl)phenyl)quinoline-8-sulfonamide]: the AC50 in experiment [1], in experiment [2], in experiment [3] and in experiment [4] was under 100 nM throughout.
Regarding `COc1ccccc1C1(O)CN(C(=O)c2ccc(NS(=O)(=O)c3cccc4cccnc34)cc2)C1` [Compound 2, N-(4-(3-hydroxy-3-(2-methoxyphenyl)azetidine-1-carbonyl)phenyl)quinoline-8-sulfonamide], the AC50 is under 100 nM in experiment [1], 101 to 1000 nM in experiment [2], 101 to 1000 nM in experiment [3] and under 100 nM in experiment [4].
For the molecule `O=C(c1ccc(NS(=O)(=O)c2cccc3cccnc23)cc1)N1CC(O)(c2cccc(OC(F)(F)F)c2)C1` [Compound 10, N-(4-(3-hydroxy-3-(3-(trifluoromethoxy)phenyl)azetidine-1-carbonyl)phenyl)quinoline-8-sulfonamide], the AC50 in experiment [1] was under 100 nM; in experiment [2], 101 to 1000 nM; in experiment [3], 101 to 1000 nM; in experiment [4], under 100 nM.
As for `Cc1cc(F)ccc1C1(O)CN(C(=O)c2ccc(NS(=O)(=O)c3cccc4cccnc34)cc2)C1` [Compound 12, N-(4-(3-(4-fluoro-2-methylphenyl)-3-hydroxyazetidine-1-carbonyl)phenyl)quinoline-8-sulfonamide], the AC50 in experiment [1] was under 100 nM; in experiment [2], 101 to 1000 nM; in experiment [3], 101 to 1000 nM; in experiment [4] it was under 100 nM.
On to `O=C(c1ccc(NS(=O)(=O)c2cccc3cccnc23)cc1)N1CC(O)(c2cccc(Cl)c2)C1` [Compound 11, N-(4-(3-(3-chlorophenyl)-3-hydroxyazetidine-1-carbonyl)phenyl)quinoline-8-sulfonamide], for which the concentration at half-maximal activity (AC50) in experiment [1] was under 100 nM; in experiment [2] it was 101 to 1000 nM; in experiment [3] it was 101 to 1000 nM; in experiment [4] it was under 100 nM.
`COc1ncccc1C1(O)CN(C(=O)c2ccc(NS(=O)(=O)c3cccc4cccnc34)cc2)C1` [Compound 20, N-(4-(3-hydroxy-3-(2-methoxypyridin-3-yl)azetidine-1-carbonyl)phenyl)quinoline-8-sulfonamide]: the concentration at half-maximal activity (AC50) in experiment [1], in experiment [2], in experiment [3] and in experiment [4] was 101 to 1000 nM throughout.
Take `CCCCC1(O)CN(C(=O)c2ccc(NS(=O)(=O)c3cccc4cccnc34)cc2)C1` [Compound 16, N-(4-(3-butyl-3-hydroxyazetidine-1-carbonyl)phenyl)quinoline-8-sulfonamide]: the AC50 in experiment [1] is 101 to 1000 nM; in experiment [2], 101 to 1000 nM; in experiment [3], 101 to 1000 nM; in experiment [4], under 100 nM.
For the molecule `O=C(c1ccc(NS(=O)(=O)c2cccc3cccnc23)cc1)N1CC(O)(c2cccnc2C(F)(F)F)C1` [Compound 17, N-(4-(3-hydroxy-3-(2-(trifluoromethyl)pyridin-3-yl)azetidine-1-carbonyl)phenyl)quinoline-8-sulfonamide], the AC50 is 101 to 1000 nM in experiment [2], 101 to 1000 nM in experiment [3] and under 100 nM in experiment [4].
Turning to `CCc1ccccc1C1(O)CN(C(=O)c2ccc(NS(=O)(=O)c3cccc4cccnc34)cc2)C1` [Compound 13, N-(4-(3-(2-ethylphenyl)-3-hydroxyazetidine-1-carbonyl)phenyl)quinoline-8-sulfonamide], the AC50 in experiment [2] was 101 to 1000 nM; in experiment [3], under 100 nM; in experiment [4], under 100 nM.
Take `Cc1ncccc1C1(O)CN(C(=O)c2ccc(NS(=O)(=O)c3cccc4cccnc34)cc2)C1` [Compound 19, N-(4-(3-hydroxy-3-(2-methylpyridin-3-yl)azetidine-1-carbonyl)phenyl)quinoline-8-sulfonamide]: the AC50 is under 100 nM in experiment [1], 101 to 1000 nM in experiment [2], 101 to 1000 nM in experiment [3] and 101 to 1000 nM in experiment [4].
On to `O=C(c1ccc(NS(=O)(=O)c2cccc3cccnc23)cc1)N1CC(O)(c2ccccc2OC(F)(F)F)C1` [Compound 7, N-(4-(3-hydroxy-3-(2-(trifluoromethoxy)phenyl)azetidine-1-carbonyl)phenyl)quinoline-8-sulfonamide], for which the half-maximal activity concentration (AC50) in experiment [1] was under 100 nM; in experiment [2], 101 to 1000 nM; in experiment [3], 101 to 1000 nM; in experiment [4] it was 101 to 1000 nM.
For `O=C(c1ccc(NS(=O)(=O)c2cccc3cccnc23)cc1)N1CC(O)(c2ccc(F)cc2)C1` [Compound 14, N-(4-(3-(4-fluorophenyl)-3-hydroxyazetidine-1-carbonyl)phenyl)quinoline-8-sulfonamide], the figures for the AC50 in experiment [1], in experiment [2] and in experiment [4] were 101 to 1000 nM, 1010 to 10000 nM and 101 to 1000 nM, respectively.
For `O=C(c1ccc(NS(=O)(=O)c2ccccc2C(F)(F)F)cc1)N1CC(O)(Cc2ccccc2)C1` [Compound 51, N-(4-(3-benzyl-3-hydroxyazetidine-1-carbonyl)phenyl)-2-(trifluoromethyl)benzenesulfonamide], the half-maximal activity concentration (AC50) in experiment [1], in experiment [2] and in experiment [4] was over 10000 nM in each case.
As to `CC(C)CC1(O)CN(C(=O)c2ccc(NS(=O)(=O)c3cccc4cccnc34)cc2)C1` [Compound 35, N-(4-(3-hydroxy-3-isobutylazetidine-1-carbonyl)phenyl)quinoline-8-sulfonamide], the AC50 in experiment [1] lay in the range of 101 to 1000 nM; in experiment [2], 1010 to 10000 nM; in experiment [4], 101 to 1000 nM.
`O=C(c1ccc(NS(=O)(=O)c2cccc3cccnc23)cc1)N1CC(O)(Cc2ccccn2)C1` [Compound 55, N-(4-(3-hydroxy-3-(pyridin-2-ylmethyl)azetidine-1-carbonyl)phenyl)quinoline-8-sulfonamide]: the values for the concentration at half-maximal activity (AC50) in experiment [1], in experiment [2] and in experiment [4] were 101 to 1000 nM, 1010 to 10000 nM and 101 to 1000 nM, respectively.
